`CCOC(=O)/C=C/c1cnc(-c2ccc(OCc3ccccc3)c(C34CC5CC(CC(C5)C3)C4)c2)nc1` showed a melting point of 164 to 167 °C. With `COc1cc(C2=NNC(=O)Cc3cc4c(cc32)OCO4)ccc1N` the melting point was 147 to 150 °C. `COC(=O)c1c2ccccc2nc2cc(Cl)ccc12` showed a melting point of 148 °C. With `Cc1nc(-n2ccn(CCc3ccc(F)cc3)c2=O)sc1C(=O)NCc1cccnc1` the melting point was 160 to 162 °C. `Clc1c2c(nc3cn[nH]c13)CCCC2` gave a melting point of 190 to 193 °C. `CNC(=O)COc1cccc2c1S(=O)(=O)N=C2C1=C(O)C(C(C)(C)C)N(Cc2ccc(F)cc2)C1=O` (stereo not drawn) showed a melting point of over 225 °C. In the case of `O=C(N[C@H](Cc1ccc(F)cc1)[C@@H](O)c1ccc(C(F)(F)F)cc1)c1cccc2ccccc12` (racemic), the melting point is reported as 207 to 208 °C. In the case of `COc1cc(OC(C)C(=O)O)c2c3c(C(N)=O)cccc3n(Cc3ccccc3)c2c1` (stereo not drawn), the melting point is reported as 170 to 172 °C. In the case of `CCN(C(=O)N1CCN(c2cc(C)cc(C)c2)CC1)c1cc2ccccc2nc1OC`, the melting point is reported as 84 to 86 °C. `O=c1[nH]c2cc(Cl)ccc2n1C1CCN(CCNC(c2ccc(F)cc2)c2ccc(F)cc2)CC1` gave a melting point of 199 °C. With `CC(=O)Nc1ccc(NC(C)=O)c2c1C(=O)c1ccccc1C2=O` the melting point was 278 to 280 °C. `COC(=O)C1Cc2c([nH]c3ccccc23)C(c2cc(OC)ccc2OC)N1` (stereo not drawn) showed a melting point of 102 to 105 °C. `O=c1oc(-c2ccccc2)cc(O)c1SCCc1cccc(Cl)c1` showed a melting point of 133 to 134 °C. `CCOC(=O)c1c(S(=O)(=O)Cc2nccn2C)nc2cc(OC)c(OC)cc2c1-c1ccc(OC)c(OC)c1` gave a melting point of 132 to 133 °C. Molecule `O=C1c2c(Br)cccc2-n2cnc(I)c2[C@@H]2CCCN12` has a melting point of 301 to 303 °C. `Clc1ccc(Cn2cnc3c(-c4ccco4)ncnc32)cc1` showed a melting point of 156 to 159 °C. `CCCCCCCC/C=C\CCCCCCCC(=O)N[C@H]1CCCNC(=O)C1` showed a melting point of 66 to 67 °C. With `Cc1cc2c3c(c1)c1c(n3CCNC2)CCC1` the melting point was 168 to 170 °C. `CCOC(=O)c1ccc(N2CCC(N)CC2)nc1` gave a melting point of 148 to 150 °C. `CCOC(=O)C(=CNc1ncnc2ccc([N+](=O)[O-])cc12)C(=O)OCC` showed a melting point of 228 to 230 °C. In the case of `CC1c2cc(F)ccc2-c2ccc(F)cc2N1C(=O)c1ccc(O)cc1` (stereo not drawn), the melting point is reported as 138 to 140 °C. `COc1ccc(N2CCN(c3c(C)c(C)c4c(c3C)C(OCc3ccc(C)cc3)C(C)(C)O4)CC2)cc1` (stereo not drawn) gave a melting point of 84 to 85 °C. Work on `O=C(Oc1cc2c(c3ccccc13)Nc1ccccc1S2)c1ccccc1` yielded a melting point of 171 °C. Work on `Cc1nc(-c2ccc(O)cc2)sc1C` yielded a melting point of 194 to 195 °C. Molecule `CC1Nc2ccc(-c3cccc(F)c3)cc2C(C)(C)O1` (stereo not drawn) has a melting point of 139 to 140 °C. In the case of `Nc1cccc(Oc2ccc(C(=O)c3ccc(C#Cc4ccccc4)cc3)cc2)c1`, the melting point is reported as 137 to 139 °C. `CC(C)O[Si](C)(C)C[C@](O)(c1ccc(F)cc1F)[C@@H](C)n1ncn(-c2ccc(OCC(F)(F)C(F)F)cc2)c1=O` showed a melting point of 125 to 126 °C. With `O=C(CCl)Nc1ccc(NNC(=O)c2ccccc2CO)cc1` the melting point was 172 to 173 °C. For `COC(=O)CCCc1cc2nc(Cl)ccc2n1S(=O)(=O)c1ccccc1OC`, the melting point was 115 °C. `Cc1cc2c(Cl)nc(N)nc2o1` gave a melting point of 255 to 257 °C. `NCCc1ccc(OCC2CCCO2)c(S(N)(=O)=O)c1` (stereo not drawn) showed a melting point of 135 to 140 °C. Work on `CCCn1cc(C(=O)NCc2ccc(Cl)cc2)c(=O)c2cc(CO)sc21` yielded a melting point of 174 to 175 °C. In the case of `COc1cc(O)c2c(c1)CCC1C2CCC2(C)C(=O)CCC12` (stereo not drawn), the melting point is reported as 220 to 222 °C. For `O=S(=O)(CF)c1cccc(Br)c1Cl`, the melting point was 149 °C. `COc1cc(OC)c2c(=O)[nH]c(-c3ccc(OC)c(N4CCN(C(C)C)CC4)n3)nc2c1` gave a melting point of 208 to 210 °C. `Cc1nc(N2CCNCC2)nc(N2CCS(=O)(=O)CC2)c1[N+](=O)[O-]` gave a melting point of 208 to 211 °C. Work on `Brc1cccc(Sc2ccccc2)n1` yielded a melting point of 47 °C. Work on `CCOC(=O)c1cnc2ccnn2c1Cl` yielded a melting point of 93 to 95 °C. With `CCCN(CCC)C1=NC2C(Br)=NN(C)C2C(O)=N1` (stereo not drawn) the melting point was 186 to 187 °C. With `CCOC(=O)C1=C(O)c2ccccc2N(c2ccccc2)C1` the melting point was 103 to 106 °C. Work on `CC(=O)Oc1c2ccc(C(F)(F)F)cc2c(OC(C)=O)c2cc3ccccc3cc12` yielded a melting point of 285 to 288 °C. `CCCCSc1ccc2c3c(cccc13)C(=O)N2` gave a melting point of 126 to 129 °C. `CCOC(=O)C(CCc1ccc2c(c1)OCO2)(Cc1cc(OC)c(OC)c(OC)c1)C(=O)OCC` gave a melting point of 79.5 to 81 °C. Molecule `COC(=O)c1cscc1O` has a melting point of 40 to 43 °C. Molecule `CC(CCC(=O)NN1CCN(C)CC1)C1CC=C2C3=C(CCC21C)C1(C)CCC(O)C(C)(C)C1CC3` (stereo not drawn) has a melting point of 189 to 191 °C. `O=C(NCc1ccncc1)c1ccnc(N2CCN(Cc3ccc(F)cc3)C2=O)c1` showed a melting point of 205 to 207 °C. With `CCC(=O)NCCc1ccc(OCc2ccccc2)c(OCc2ccccc2)c1CC` the melting point was 159 to 160 °C. In the case of `O=C(O)CCc1ccc(C(=O)CN2CCN(c3ccncc3)CC2)cc1`, the melting point is reported as 245 to 247 °C. In the case of `Nc1ccc(N2CCN(CC(O)(Cn3cncn3)c3ccc(Cl)cc3Cl)CC2)cc1` (stereo not drawn), the melting point is reported as 60 °C. With `COC(=O)C(Cl)=Cc1cc(-n2ncc(C(F)(F)F)cc2=O)ccc1Cl` the melting point was 140 to 141 °C. `Cc1ncn(C)c1CO` gave a melting point of 125 to 127 °C. `Cc1nn(CCOc2ccc(C=C3SC(=O)NC3=O)cc2)c(=O)c2ccccc12` showed a melting point of 202 °C. `COc1ccc(C2CC(=O)N(c3ccnc(NC(=O)NCc4ccccn4)c3)C2)cc1` (stereo not drawn) gave a melting point of 159 to 161 °C. Molecule `COCn1ncc2cc(-c3nnc(S)o3)ccc21` has a melting point of over 300 °C. In the case of `CSc1nc(-c2ccccn2)n(-c2ccc(C)cc2)c(=O)c1C#N`, the melting point is reported as 247 to 248 °C. In the case of `CC(C)(CO)c1ccc(Cl)cc1`, the melting point is reported as 46 to 48 °C. With `Cn1cc(OCC(F)(F)F)c(=O)c(-c2cccc(C(F)(F)F)c2)c1` the melting point was 97 to 99 °C. With `FC(F)c1nc2ccccc2n1-c1nc(NCc2ccccc2)nc(N2CCOCC2)n1` the melting point was 185 to 188 °C. Molecule `CCOC(=O)C#CC(C)(C)OC(=O)Nc1ccc(-c2ncn(-c3ccc(OC(F)(F)F)cc3)n2)cc1` has a melting point of 183 to 188 °C. `CCOC(=O)c1ccc2c(O)c(C(=O)OCC)c(=O)n(C)c2n1` gave a melting point of 174 to 175 °C. Molecule `Cc1c(/C=C/C(=O)c2c[nH]c3ccccc23)ncn1C(c1ccccc1)(c1ccccc1)c1ccccc1` has a melting point of 240 to 242 °C. `C=CCc1c2n(c3ccccc13)C(=O)C(=Cc1ncn(C(c3ccccc3)(c3ccccc3)c3ccccc3)c1C)CC2` gave a melting point of 211 to 214 °C. In the case of `CCCCCS(=O)(=O)NC(=O)CCCCc1cc(OCCCC)nn1Cc1ccc(Cl)cc1Cl`, the melting point is reported as 91 to 93 °C. With `CCc1cn(C(CC)CC)c(=O)c(N2CCc3cc(Cl)cc(Cl)c32)n1` the melting point was 136 to 137 °C. `CC(=O)c1cccc2c1OC1(CC1)C2=O` showed a melting point of 114 to 115 °C. `Nc1nc2ccccc2n1-c1ccc(-c2ccco2)cc1` gave a melting point of 210 to 212 °C. `C/C=C(/COC(=O)CNC(=O)C(F)(F)F)c1ccccc1` showed a melting point of 49 to 50 °C. `COc1cc(Cc2cnc(N)nc2N)c2c(c1OC)OCC=C2` showed a melting point of 232 to 234 °C. For `Cc1nn(C)c(OCC(=O)C(C)(C)C)c1C(=O)c1ccc(Cl)cc1Cl`, the melting point was 104 to 105 °C. For `COC(=O)c1cc(F)c(OS(=O)(=O)c2c(C)cc(C)cc2C)nc1Nc1ccc(F)cc1F`, the melting point was 153 to 155 °C. Work on `CCCCn1c(=O)c(NC(=O)Nc2c(C(C)C)cc(N(C)Cc3cccnc3)cc2C(C)C)c(-c2cccc(OC)c2)c2cccnc21` yielded a melting point of 155 to 157 °C. In the case of `CC(COc1ccc(O)c(C(N)=O)c1)N(Cc1ccccc1)CC(O)COc1ccc(OCC(N)=O)cc1` (stereo not drawn), the melting point is reported as 145 to 149 °C. Work on `O=C(O)CCCCCn1sc2ccccc2c1=O` yielded a melting point of 59 to 61 °C. Work on `CC#CCOc1ccc(S(=O)(=O)NC(COCCBr)C(=O)OC)cc1` (stereo not drawn) yielded a melting point of 45 to 46 °C. Work on `CC(C)(C)OC(=O)NCCN(CCC12CC3CC(CC(C3)C1)C2)C(=O)NCCCc1ccncc1` yielded a melting point of 158 to 160 °C. With `CCCCC(Cc1ccc(OCCNC(=O)c2ccc(-c3ccc(OC)cc3)cc2)cc1)C(=O)O` (stereo not drawn) the melting point was 166 to 168 °C. `Cc1ccc(S(=O)(=O)N2CCOC(C)(C)C2)cc1` showed a melting point of 95 to 97 °C. With `CCOC(=O)C=Cc1ccc(NC(=O)CC)cc1` the melting point was 138 °C. Molecule `CCOc1ccc(-c2nc(-c3cc(CNC)c(O)c(C(=O)O)c3)cs2)cc1OCC` has a melting point of 271 to 273 °C. `CC(C)S(=O)(=O)c1cc(OCc2ccc(S(C)(=O)=O)cn2)c2[nH]nc(Nc3nccs3)c2c1` showed a melting point of 160 to 161 °C. With `COc1cc(C)nc(NC(=O)NS(=O)(=O)c2cccc3cc[nH]c23)n1` the melting point was 207 to 209 °C. With `CN1CC=C(c2c[nH]c3ccc(NC(=O)c4ccccc4)cc23)CC1` the melting point was over 250 °C. With `CC(C)(C)OC(=O)NCCNC(=O)c1ncsc1Br` the melting point was 108 to 111 °C. Molecule `CCCN(CCC)Cn1cnc2c1c(=O)n(C)c(=O)n2C` has a melting point of 72 to 73 °C. `O=C(CCCCCOc1ccc([N+](=O)[O-])cc1)OCCOCCOC(=O)CCCCCOc1ccc([N+](=O)[O-])cc1` showed a melting point of 60 to 62 °C. With `O=S(=O)(c1ccc(Cl)cc1)N1CCCC1c1ccc(F)cc1` (racemic) the melting point was 118 °C. `Cc1cccc(C)c1N(CC(C)O)S(C)(=O)=O` (stereo not drawn) showed a melting point of 81 to 84 °C. For `Oc1cccc(C=Cc2nc(-c3ccccc3)c(-c3ccccc3)o2)c1`, the melting point was 201 to 203 °C. Work on `CCSc1ccc2nc(C(F)(F)F)c(S(N)(=O)=O)n2n1` yielded a melting point of 208 to 210 °C. `C1=C(CCc2ccco2)CCN(Cc2c[nH]c3ncccc23)C1` gave a melting point of 105 °C. Work on `CCn1c(=O)c2[nH]c(/C=C/c3ccc4c(c3)OCO4)nc2n(CC)c1=O` yielded a melting point of over 275 °C. `COC(=O)c1ccc2ccc3ccccc3c(=O)c2c1` showed a melting point of 118 to 120 °C. With `COc1cc([N+](=O)[O-])ccc1S(=O)(=O)n1c(=O)n(-c2ccccc2)c2cc(Cl)ccc21` the melting point was over 250 °C. Molecule `Cc1cc([N+](=O)[O-])cc(N)c1[N+](=O)[O-]` has a melting point of 125 to 127 °C. With `O=C1Nc2c(O)cccc2C(=O)N2CCCC12` (stereo not drawn) the melting point was 280 to 282 °C. Work on `CC1(N)CCN(C2=Nc3c(nc(Cl)nc3Nc3ccc(F)c(Cl)c3)CN2)CC1` yielded a melting point of 212 °C. In the case of `CN(C)c1ccc(C2CC3(C)C(O)CC(O)C3C3CCC4CC5(CCC4=C23)OCCO5)cc1` (stereo not drawn), the melting point is reported as 107 to 109 °C. Work on `Cc1c(O)cc2c(c1Br)[C@H](O)[C@H](N1CCC(O)(c3ccc(F)cc3)CC1)CO2` (relative stereo) yielded a melting point of 196 °C.
